Experiment [1] concerns the target T1, BacAef (Enterococcus faecalis, UniProt A0ACD6TE02). The format is biochemical.
Experiment [2] addresses Fluorescein-labelled EntC1 (Enterococcus faecalis C901). As to the kind of experiment: flow-induced dispersion analysis (FIDA); as the titration without EntC2, but in the presence of 200 nM EntC2 (twice the concentration of Fluo-EntC1); 25 °C; 20 mM Tris-HCl pH 7.4, 200 mM NaCl, 0.1% DDM; 1:1 binding model.
Experiment [3] has the same target. Put plainly: flow-induced dispersion analysis (FIDA).
In experiment [4] the target is N-terminal His6-tagged BacA from E. faecalis (BacAef) (Enterococcus faecalis). As to the kind of experiment: cross-linking; DSS (100- or 1000-fold excess), peptides and BacA at equimolar 17 μM in buffer D (20 mM HEPES pH 7.5, 0.2 M NaCl, 10% glycerol, 0.1% DDM), 30 min at 4 °C, quenched with 50 mM Tris-HCl; SDS-PAGE and anti-His blot of BacA.
The target of experiment [5] is T1, BacAef. Put plainly: ITC, BacAef. The format is binding. The settings on record: 20 °C; for -TΔS / ΔG / ΔH: into [BacAef] 33 μM.
The target in experiment [6] is T1, BacAef. As to the kind of experiment: UppS-coupled C55-PP phosphatase assay in liposomes, BacAef. The format is biochemical. The settings on record: liposomes.
Experiment [7] concerns E. faecalis (V583-derivative strain, WT). It is filed as cell-based, Enterococcus faecalis. To be noted: 6 μl droplets on a lawn of E. faecalis, BHI 0.75% agar, overnight; representative of three independent experiments.
The target in experiment [8] is T1, BacAef. It is filed as binding. Here is the method: Thermal stability of BacA protein in different mixtures of peptides was performed by DSC on a MicroCal model VP-DSC (Malvern Panalytical, Malvern, UK). BacA (33 μM) was mixed with different mixtures of peptides at twice the BacA concentration (i.e. 66 μM). Each measurement was preceded by a baseline scan with the standard buffer. Scans were performed at 1 K/min (60 °C/h) temperature ramp between 30 °C and 100 °C. The heat capacity of the buffer was subtracted from that of the protein sample before analysis. The thermodynamic parameters were determined by fitting the data to the following equation: ΔCp(T)=Kd(T)ΔHcalΔHvH/[1+Kd(T)]^2RT^2 where Kd is the equilibrium constant for a two-state process, ΔHvH the enthalpy calculated based on a two-state process and ΔHcal the measured enthalpy.

In another experiment the target is BacAef/EntC1 (Enterococcus faecalis, UniProt A0ACD6TE02+Q9L9U6). As to the kind of experiment: ITC, BacAef/EntC1 mixture. It is filed as binding. On the technique in general: Isothermal titration calorimetry measures the heat released or taken up as one component is titrated into another.
The target of a further experiment is BacAef/LcnGα (Enterococcus faecalis, UniProt A0ACD6TE02). As to the kind of experiment: ITC, BacAef/LcnGα mixture. It is filed as binding. To be noted: 20 °C.
The target in experiment [9] is T1, BacAef. Put plainly: DSS crosslinking. It is filed as binding. The settings on record: BacAef and peptide 17 μM each, DSS 100- or 1000-fold excess, 30 min, 4 °C. On the procedure:
Crosslinking experiments were performed using the amine-reactive, membrane-permeable, and non-cleavable crosslinker disuccinimidyl suberate (DSS) purchased from Sigma. EntC peptides and BacA protein were mixed at equimolar concentrations (17 μM) in buffer D in the presence of an excess of DSS crosslinker (1000-fold or 100-fold) in a final reaction volume of 20 μl. The reaction was incubated for 30 min at 4°C, and any unreacted DSS was quenched with 50 mM Tris-HCl. After separation on a 12% acrylamide gel, proteins were electrotransferred onto polyvinylidene difluoride (PVDF) membrane, and BacA was detected using peroxidase-coupled anti-His tag antibody (Penta-His HRP conjugate from Qiagen, RRID: AB_3699318) by chemiluminescence detection (Western Lightning Plus-ECL, PerkinElmer) using the ChemiDoc MP system (Bio-Rad).

Experiment [10] deals with BacAef + LcnGα mixture (Enterococcus faecalis | Lactococcus lactis). Put plainly: ITC; peptides (400 μM) in the syringe titrated into the protein, or the protein premixed with one peptide, (33 μM) in the cell; 20 °C; 20 mM Tris-HCl pH 7.4, 200 mM NaCl, 0.1% DDM; single binding site model.
For experiment [11], the target named is N-terminal His6-tagged BacA from E. faecalis (BacAef) (Enterococcus faecalis). The experiment is described as above.
For experiment [12] the target is unchanged.
For experiment [13] the target is unchanged. The source holds these as a separate data set.
Experiment [14] shares this target. Put plainly: ITC; EntC1 (400 μM) in the syringe titrated into a mixture containing BacAef and EntC2 (33 μM) in the cell; 20 °C; 20 mM Tris-HCl pH 7.4, 200 mM NaCl, 0.1% DDM.
A further experiment relates to L. lactis strains. To be noted: ref [6], [7], [8], cited from earlier work.
For the next experiment, the system named is L. lactis IL1403. Put plainly: spot-on-lawn antibacterial assay, L. lactis. The format is cell-based, Lactococcus lactis. To be noted: 6 μl droplets, L. lactis IL1403, M17G agar, overnight.
Experiment [15] addresses N-terminal His6-tagged BacA from E. faecalis (BacAef) (Enterococcus faecalis). This is another data set of the same source.
Where [16] appears, read: ITC, peptides 400 μM into [BacAef] 33 μM, 20 mM Tris-HCl pH 7.4, 200 mM NaCl, 0.1% DDM, at least triplicate.
The mark [17] stands for this setting: ITC, 20 °C, into [BacAef/EntC1].

Results on nine compounds are retold here after paper PMC12765074, “Mechanistic insights into enterocin C targeting the undecaprenyl phosphate recycling protein BacA” (The Journal of Biological Chemistry, 2025).

Entries after “also recorded” stand apart in the source; their conditions may differ.

In the case of `[Ca+2].[Cl-].[Cl-]` [CaCl2], the “restoration of BacAef activity following EDTA treatment” value at BacAef [1] (after 500 μM EDTA, pH 7.5, 0.1% DDM) is “restored”.

In the case of `O=C(O)CN(CCN(CC(=O)O)CC(=O)O)CC(=O)O` [EDTA], at BacAef [1], the “effect on BacAef C55-PP phosphatase activity” value is reported as “inhibited its activity”.

“N-terminal His6-tagged BacA from E. faecalis (BacAef) (enzyme)”: the values for the Kd in experiment [2] and in [3] were 86 nM and 96 nM, respectively. For the same compound, the stoichiometry N in experiment [4] was 2.

On to `CC[C@H](C)[C@H](NC(=O)CNC(=O)[C@H](CCCCN)NC(=O)[C@H](C)NC(=O)[C@H](CC(C)C)NC(=O)CNC(=O)[C@H](C)NC(=O)[C@@H](NC(=O)[C@H](Cc1ccccc1)NC(=O)[C@H](CC(=O)O)NC(=O)[C@H](Cc1ccc(O)cc1)NC(=O)[C@H](C)NC(=O)[C@@H]1CCCN1C(=O)[C@H](CCC(N)=O)NC(=O)[C@H](CC(C)C)NC(=O)[C@H](Cc1c[nH]c2ccccc12)NC(=O)[C@@H]1CCCN1C(=O)[C@H](CC(C)C)NC(=O)[C@H](Cc1c[nH]c2ccccc12)NC(=O)[C@H](CCCCN)NC(=O)CNC(=O)[C@@H]1CCCN1C(=O)CN)C(C)C)C(=O)NCC(=O)N[C@@H](CCCCN)C(=O)N[C@@H](CCC(=O)O)C(=O)NCC(=O)N[C@@H](CC(N)=O)C(=O)N[C@@H](CCCCN)C(=O)N[C@@H](CC(N)=O)C(=O)N[C@@H](CCCCN)C(=O)N[C@@H](Cc1c[nH]c2ccccc12)C(=O)N[C@@H](CCCCN)C(=O)N[C@@H](CC(N)=O)C(=O)N[C@H](C(=O)O)C(C)C` (single isomer, unassigned) [EntC2], for which the “-TΔS” value on BacAef [5] (ITC) is “No binding”; on BacAef/EntC1 (setting [17]), 6.5 kcal/mol; at BacAef/LcnGα (into [BacAef/LcnGα]) it was 10.5 kcal/mol. Moreover, the ΔG result was “No binding” at BacAef [5] (ITC), -10.3 kcal/mol on BacAef/EntC1 (setting [17]) and -9.0 kcal/mol on BacAef/LcnGα (into [BacAef/LcnGα]). Moreover, the ΔH entry was “No binding” at BacAef [5] (ITC), -16.8 kcal/mol on BacAef/EntC1 (setting [17]) and -19.5 kcal/mol on BacAef/LcnGα (into [BacAef/LcnGα]). For the same compound, on BacAef [5] (setting [16]), the KD entry is listed as “No binding”. Further, the “binding to BacAef (ITC, words)” value at BacAef [5] (titration on BacAef alone) is listed as “No binding”. Also, the “inhibition of BacAef C55-PP phosphatase activity” value at BacAef [1] (DDM micelles, EntC2 up to 50 μM, pH 7.4, 37 °C, 10 min) is “no inhibition”. Moreover, the “effect on BacAef activity in liposomes” value on BacAef [6] is given as “no effect”. The “antibacterial activity (spot-on-lawn), E. faecalis” value in experiment [7] is reported as “neither peptide exhibited antibacterial activity when applied individually”. The “DSC signal change of BacAef” value on BacAef [8] (EntC2 at twice the concentration of BacAef) was “did not change the DSC signal”. Besides, the “affinity of second binding event relative to EntC1 binding (fold)” value on BacAef/EntC1 (EntC2 into BacAef/EntC1 versus EntC1 into BacAef) is listed as “about 10 -fold”. The n on BacAef/EntC1 (ITC, 20 °C, 400 μM into [BacAef/EntC1] 33 μM) amounted to 0.95 ± 0.01; at BacAef/LcnGα (400 μM into [BacAef/LcnGα] 33 μM), 0.77 ± 0.01. Also, at BacAef [9], the “crosslinked complex band with BacAef (SDS-PAGE, western blot)” value is recorded as “a very faint band”.

For the compound “Enterocin C peptide EntC2 (mature, synthetic)”, in [10], the dH was -19.5 kcal/mol and the stoichiometry N worked out at 0.77.

For “Enterocin C peptide EntC1 (mature, synthetic)”, in [11], the Kd was 306 nM, the dH is -5.4 kcal/mol and the stoichiometry N amounted to 0.6. For the same compound, in experiment [12], the DSC: Tm of BacAef (33 μM) with the peptide at 66 μM (66.3°C without peptide) turned out to be 73 °C and the DSC: enthalpy of denaturation ΔH of BacAef (33 μM) with the peptide at 66 μM (26.7 kcal/mol without peptide) is 45.3 kcal/mol. The stoichiometry N in experiment [4] worked out at 1. The compound further had an IC50 of inhibition of the C55-PP phosphatase activity of BacAef in DDM micelles in experiment [13] of 800 nM. Moreover, in experiment [14], the Kd turned out to be 480 nM, the dH is -27.6 kcal/mol and the stoichiometry N was 0.69.

Consider “Lactococcin G [LcnG, reference compound]”, for which, at BacAef [5] (ITC), the “-TΔS” value came to 11.3 kcal/mol, the ΔG is -9.1 kcal/mol and the ΔH was -20.4 kcal/mol. This compound also gave a Kd at BacAef [5] (setting [16]) of 165 ± 19 nM. The compound also displayed a n on BacAef [5] (ITC, peptides 400 μM into [BacAef] 33 μM, pH 7.4, 0.1% DDM, at least triplicate) of 0.62 ± 0.01. At BacAef [1] (DDM micelles, 20 mM Tris-HCl pH 7.4, 400 μM CaCl2, 150 mM NaCl, 0.1% DDM, 50 μM [14C]C55-PP, 10 min, 37 °C, TLC, EntC vs EntC1 p-value = 0.0007, read-out: IC50, BacAef C55-PP phosphatase activity), the concentration for half-maximal inhibition (IC50) is 800 nM. Besides, the “antibacterial activity (spot-on-lawn), E. faecalis” value in experiment [7] is “E. faecalis was only susceptible to EntC; also recorded: inactive against E. faecalis”. Moreover, the membrane permeabilization result with L. lactis strains (1:1 ratio of LcnGα and LcnGβ) is “membrane permeabilization to monovalent cations”. The “antibacterial activity against L. lactis strains” value in the experiment on L. lactis strains is on record as “antibacterial activity at nanomolar concentrations”. For the same compound, in the experiment with L. lactis IL1403, the “antibacterial activity (spot-on-lawn), L. lactis” value was “sensitivity to both bacteriocins”. Moreover, at BacAef [8] (LcnG versus EntC), the “difference in Tm between EntC and LcnG complexes with BacAef” value was 6.8 °C; the “difference in ΔH between EntC and LcnG complexes with BacAef” value is 7.8 kcal/mol.

Take “EntC1-LcnGβ chimera bacteriocin (EntC1 and LcnGβ together) (complex)”: in experiment [11], the Kd came to 307 nM, the dH was -19.4 kcal/mol and the stoichiometry N came to 0.79.

As to “Lactococcin G (LcnGα and LcnGβ together) (complex)”, in experiment [11], the Kd is 165 nM, the dH was -20.4 kcal/mol and the stoichiometry N worked out at 0.62. Besides, the IC50 of inhibition of the C55-PP phosphatase activity of BacAef in vitro in experiment [15] is 800 nM.

A word on the Kd: it is the constant that tells how readily two partners part at equilibrium. What is called stoichiometry N is the number of molecules, sites or subunits per partner or assembly. The IC50 is the concentration at which inhibition is half-maximal.
